# Reference: paper PMC4434909, “In vitro properties of designed antimicrobial peptides that exhibit potent antipneumococcal activity and produces synergism in combination with penicillin” (Scientific Reports, 2015)
# Values joined by “and” are separate entries in the source; they are usually repeats but may differ in a detail not shown here. Equal entries are not always repeated. Where two headings read alike, the source gives them in different places. Where no end group is shown, it is not given here.
# Experiments:
# human erythrocytes = assay: Hemolytic activity; format: cell-based; conditions: for Hmax: percentage hemolysis at the highest concentration tested (all peptides 250 μg/ml; PEN 4 μg/ml)
# Procedure: Hemolytic assay was performed as described. Freshly drawn human erythrocytes were rinsed three times with PBS and resuspended in PBS to 4% (v/v). One hundred microliters of the suspension was added to 96-well microtiter plate containing equal volume of peptides to give final concentrations of peptides encompassing the range of 1.96–250 μg/ml. PBS and 0.1% (v/v) Triton-X 100 were used as 0% and 100% hemolytic control respectively. Plates were incubated at 37°C for 1 hr. Subsequently, the plate was centrifuged and the supernatant was transferred to a new plate. The release of hemoglobin in the supernatant was monitored at absorbance of 450 nm using Glomax Multidetection system (Promega, USA). Results were pooled from three independent experiments and expressed as mean ± SD. HC10 and HC50 were defined as the peptide concentrations causing 10% and 50% hemolysis on human erythrocytes, respectively. Hmax was the percentage hemolysis observed at the maximum concentration as defined throughout this study (all peptides 250 μg/ml, PEN 4 μg/ml).
# E. cloaceae = format: cell-based, E. cloacae; conditions: Gram-negative, clinical isolate; broth microdilution, CAMHB, peptides 1.96–250 μg/ml
# From the text: (§1) All bacterial strains were obtained from Department of Medical Microbiology, University of Malaya. Clinical isolates were previously obtained from University of Malaya Medical Centre and maintained in the laboratory. Sheep blood agar was used for pneumococcal cultivation purpose. Nutrient agar was used for cultivating E. coli ATCC 25922, S. aureus ATCC 25923, and P. aeruginosa ATCC 15442, Acinetobacter baumanii ATCC 15308, and one clinical isolate for each MRSA, E. cloacae, Citrobacter spp., and K. pneumoniae. For antimicrobial testing, Mueller-Hinton agar (MHA) and cationically-adjusted MHB (CAMHB) were prepared according to the Clinical and Laboratory Standard Institute guidelines. MHA for S. pneumoniae was supplemented with 5% (v/v) defibrinated sheep blood and 5% laked horse blood for CAMHB. All bacterial cultures were stored in multiple vials in brain heart infusion broth supplemented with 10% (v/v) glycerol at −80°C to avoid repeated freeze-thawed cycles on the cells. All freeze-stocked strains were passaged twice prior to experimentation.
# (§2) Procedures were performed to determine the MIC of peptides according to the CLSI guidelines[21] against 60 pneumococcal isolates which consisted of 20 isolates each for PRSP, PISP, and PSSP. Strains were grown for 18–24 hrs at 37°C under 5% CO2. Direct suspension of the colonies were made in CAMHB and adjusted to OD625 0.08–0.1 which corresponds to 1 ~ 2 × 10^8 CFU/ml followed by serial ten-fold dilutions to give 1 × 10^6 CFU/ml. Fifty microliters of bacterial suspension was then aliquoted to 96-well round bottom microtiter plates containing equal volume of serially diluted peptides to give final concentrations of peptides encompassing the range of 1.96–250 μg/ml. […] The plates were incubated for 18–24 hrs at 37°C under 5% CO2. MIC was read as the concentration of peptide producing complete inhibition on the visible growth of the test organism. Results were pooled from three independent experiments. MIC range was defined as the range of concentrations where the peptides produce detectable antimicrobial activity. Effective percentage (EP) was the proportion of pneumococcal isolates inhibited within the MIC range. Since the isolates tested were obtained prior to 2008 where major revision in antibiotic susceptibility breakpoints were introduced, thus the pneumococci were defined according to the PEN susceptibility breakpoint (prior 2008) which corresponds to the PEN (oral penicillin V) breakpoint of the revised criteria.
# (§3) The broad spectrum antibacterial activity of the peptides against a panel of eight clinically important bacteria was also determined, this includes S. aureus ATCC 25923, E. coli ATCC 25922, P. aeruginosa ATCC 15442, A. baumanii ATCC 15308, and one clinical isolate each for MRSA, E. cloacae, Citrobacter spp., and K. pneumoniae.
# A. baumanii ATCC 15308 = format: cell-based, Acinetobacter baumanii
# From the text: as §1, §2, §3
# K. pneumoniae = format: cell-based, Klebsiella pneumoniae; conditions: Gram-negative, clinical isolate; broth microdilution, CAMHB, peptides 1.96–250 μg/ml
# From the text: as §1, §2, §3
# S. aureus ATCC 25923 = format: cell-based
# From the text: as §1, §2, §3
# E. coli ATCC 25922 = format: cell-based
# From the text: as §1, §2, §3
# Citrobacter spp. = format: cell-based; conditions: Gram-negative, clinical isolate; broth microdilution, CAMHB, peptides 1.96–250 μg/ml
# From the text: as §1, §2, §3
# P. aeruginosa ATCC 15442 = format: cell-based
# From the text: as §1, §2, §3
# PRSP = format: cell-based, Streptococcus pneumoniae
# Procedure: (§4) This assay was performed to evaluate the killing kinetics of peptides. One PRSP, PISP, and PSSP isolate were each grown and prepared to 5 × 10^6 CFU/ml. Each isolate in CAMHB was challenged with peptides at two times the respective MIC values. At the indicated time intervals (0, 30, 60, 120, 150, 180, 210, and 240 min; “0” indicate pretreatment), 10 μl of suspension was removed and immediately serially diluted in cold phosphate-buffered saline to arrest further reaction before spread-plated on MHA to obtain viable colony counts. The percentage cell recovered was calculated by dividing the surviving CFU of the treated cells over the surviving CFU of the untreated control cells at the respective time points. Results were pooled from three independent experiments and expressed as mean ± standard deviation (SD).
# PISP = format: cell-based, Streptococcus pneumoniae
# Procedure: as §4
# PRSP, PISP, and PSSP = format: cell-based, Streptococcus pneumoniae; conditions: for CFU recovered (viability), all three groups of pneumococci: 5 × 10^6 CFU/ml in CAMHB, plate count, relative to untreated control
# Procedure: as §4
# PSSP = format: cell-based, Streptococcus pneumoniae
# Procedure: as §4
# [1] = test system: multiple gram-positive and gram-negative bacteria; format: cell-based; conditions: range: DM3 against seven bacteria; DM4 and DM5 apart from higher MICs against E. cloaceae, K. pneumoniae, S. aureus
# From the text: as §1, §2, §3
# [2] = 30 min post treatment, 2× MIC, 5 × 10^6 CFU/ml in CAMHB, plate count, relative to untreated control
# [3] = concentration causing 10% hemolysis, 4% (v/v) erythrocytes in PBS, 37°C 1 hr, absorbance 450 nm, mean ± SD of three independent experiments
# [4] = concentration causing 50% hemolysis, 4% (v/v) erythrocytes in PBS, 37°C 1 hr, absorbance 450 nm, three independent experiments
# [5] = mean ± SD of three independent experiments
# [6] = Gram-negative, broth microdilution, CAMHB, peptides 1.96–250 μg/ml
# [7] = Gram-positive, broth microdilution, CAMHB, peptides 1.96–250 μg/ml
# [8] = average of PRSP, PISP and PSSP, 30 min post treatment, 2× MIC
Substance,HC10 (human erythrocytes) [µg/mL],"HC50 (human erythrocytes; red cells of human, 1 h) [µg/mL]","MIC, E. cloaceae (E. cloaceae) [µg/mL]","MIC, A. baumanii ATCC 15308 (A. baumanii ATCC 15308; ATCC 15308) [µg/mL]","MIC, K. pneumoniae (K. pneumoniae) [µg/mL]","MIC, S. aureus ATCC 25923 (S. aureus ATCC 25923; ATCC 25923) [µg/mL]","MIC, E. coli ATCC 25922 (E. coli ATCC 25922; ATCC 25922) [µg/mL]","MIC, Citrobacter spp. (Citrobacter spp.) [µg/mL]","MIC, P. aeruginosa ATCC 15442 (P. aeruginosa ATCC 15442; ATCC 15442) [µg/mL]","difference in killing kinetics over PEN, PRSP (PRSP; 2) [%]","difference in killing kinetics over PEN, PISP (PISP; 2) [%]","difference in killing kinetics over PEN, average (PRSP, PISP, and PSSP; 2) [%]","CFU recovered (viability), all three groups of pneumococci (PRSP, PISP, and PSSP; 30 min post treatment, 2× MIC) [%]","difference in killing kinetics over PEN, PSSP (PSSP; 2) [%]",HC10 (human erythrocytes; [3]) [µg/mL],HC50 (human erythrocytes; [4]) [µg/mL],Hmax (human erythrocytes; [5]),"MIC, A. baumanii ATCC 15308 (A. baumanii ATCC 15308; [6]) [µg/mL]","MIC, S. aureus ATCC 25923 (S. aureus ATCC 25923; [7]) [µg/mL]",antibacterial MIC range over the bacterial panel [1] [µg/mL],other results
GLFDIWAWWRWRR-NH2 [DM2],114.3,>250,>250,31.3,>250,31.3,250,62.5,>250,64.1,65.4,61.3,< 6.0,54.4,–,–,–,–,–,–,"CFU recovered, PRSP (PRSP; [2]): completely killed; CFU recovered, PISP (PISP; [2]): 12.4%"
GLFDIWKKWRWRR-NH2 [DM4],–,–,250,–,>250,–,–,31.3,–,–,–,–,–,–,> 250,>250,< 1.0% and 0.6 ± 0.1%,31.3,62.5,31.3 to 62.5,"MIC, E. coli ATCC 25922 (E. coli ATCC 25922; [6]): 62.5 µg/mL; MIC, P. aeruginosa ATCC 15442 (P. aeruginosa ATCC 15442; [6]): 31.3 µg/mL; difference in killing kinetics over PEN, PRSP (PRSP; 30 min post treatment, 2× MIC): 39.0%; difference in killing kinetics over PEN, PISP (PISP; 30 min post treatment, 2× MIC): 57.8%; difference in killing kinetics over PEN, average (PRSP, PISP, and PSSP; [8]): 42.4%; difference in killing kinetics over PEN, PSSP (PSSP; 30 min post treatment, 2× MIC): 30.5%"
GLFDKWAWWRWRR-NH2 [DM1],–,–,125,–,>250,–,–,31.3,–,–,–,–,–,–,> 250,>250,< 1.0% and 0.5 ± 0.1%,62.5,125,–,"MIC, E. coli ATCC 25922 (E. coli ATCC 25922; [6]): 62.5 µg/mL; MIC, P. aeruginosa ATCC 15442 (P. aeruginosa ATCC 15442; [6]): 125 µg/mL; difference in killing kinetics over PEN, PRSP (PRSP; 30 min post treatment, 2× MIC): 52.9%; difference in killing kinetics over PEN, PISP (PISP; 30 min post treatment, 2× MIC): 54.2%; difference in killing kinetics over PEN, average (PRSP, PISP, and PSSP; [8]): 48.5%; difference in killing kinetics over PEN, PSSP (PSSP; 30 min post treatment, 2× MIC): 38.4%"
GLFDIWKKLRWRR-NH2 [DM5],> 250,>250,125,31.3,250,125,31.3,31.3,31.3,38.1,58.5,44.4,–,36.5,–,–,–,–,–,31.3 to 62.5,–
GLFDIWKWWRWRR-NH2 [DM3],52.7,>250,31.3,15.63,62.5,15.63,62.5,15.63,125,60.0,76.0,64.6,< 6.0,57.7,–,–,–,–,–,7.81 to 62.5,"hemolysis at the effective MIC level against S. pneumoniae (human erythrocytes; red cells of human, 1 h): ≤ 15%"
